Assay [1] deals with T1, PPARγ-LBD (Homo sapiens, UniProt P37231).
T1 sequence (P37231 203-477 isoform P37231-2): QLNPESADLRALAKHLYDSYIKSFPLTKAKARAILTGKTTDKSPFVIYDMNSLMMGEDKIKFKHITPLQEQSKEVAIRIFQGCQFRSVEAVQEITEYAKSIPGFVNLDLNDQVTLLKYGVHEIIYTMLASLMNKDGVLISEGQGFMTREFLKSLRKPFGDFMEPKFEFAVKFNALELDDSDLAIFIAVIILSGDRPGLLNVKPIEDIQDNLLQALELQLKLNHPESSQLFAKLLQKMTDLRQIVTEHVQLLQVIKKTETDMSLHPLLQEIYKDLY
Kind of assay: TR-FRET PGC1α coactivator recruitment assay. Format: biochemical. More on the design: PPARγ-LBD (amino acids 203–477 in isoform 1); made in house; host or cells: Rosetta (DE3) pLysS (E. coli). The following applies: PGC1α peptide, read-out: EC50, PGC1α recruitment to PPARγ-LBD. The procedure: (§1) Subsequently, 5 µL of 4 nM Eu-W1024-labeled anti-6×His antibody/80 nM ULight-Streptavidin (PerkinElmer) was added to each well, and the microplate was incubated in the dark for 2 h, at room temperature. […] The nonlinear fitting and the calculation of the EC50 were performed using the Prism 9 software (GraphPad, San Diego, CA, USA).
(§2) The ligand-bound activated forms of PPARs are stabilized by associations with specific coactivators, thereby enabling the regulation of specific gene expression.
(§3) Figure 2 TR-FRET-based LBD-mediated human PPARα/δ/γ coactivator recruitment assay. […] Data are presented as the mean ± SE of three or four independent experiments with duplicate samples, and the calculated EC50 values are shown.

For assay [2], the target named is T2, PPARα-LBD (Homo sapiens, UniProt Q07869).
T2 sequence (Q07869 200-468): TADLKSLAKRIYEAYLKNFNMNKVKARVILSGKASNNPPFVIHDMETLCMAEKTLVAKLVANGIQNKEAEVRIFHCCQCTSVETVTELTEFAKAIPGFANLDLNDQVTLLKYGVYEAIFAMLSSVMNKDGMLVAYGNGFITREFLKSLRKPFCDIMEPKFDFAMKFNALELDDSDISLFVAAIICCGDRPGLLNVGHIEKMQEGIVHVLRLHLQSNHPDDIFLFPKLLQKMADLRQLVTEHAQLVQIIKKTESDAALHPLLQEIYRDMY
Kind of assay: TR-FRET SRC1 coactivator recruitment assay. Format: biochemical. On the set-up: Human PPARα-LBD (amino acids 200–468); made in house; host or cells: Rosetta (DE3) pLysS (E. coli). The conditions noted are these: for pEC50: TR-FRET, SRC1 peptide, read-out: EC50, SRC1 recruitment to PPARα-LBD. The procedure:
as §1, §2, §3
On the technique in general: Time-resolved FRET reads energy transfer from a long-lived donor to a nearby acceptor.

Assay [3] deals with T2, PPARα-LBD. Kind of assay: Thermal stability assay using circular dichroism spectroscopy. Format: binding. More on the design: Human PPARα-LBD (amino acids 200–468); His tag (pET28a) (N); made in house; host or cells: Rosetta (DE3) pLysS (E. coli). The conditions noted are these: CD at 222 nm; 10 µM LBD; GW7647 at 10 µM. The procedure:
(§4) PPARα/δ/γ-LBD proteins (10 µM) were incubated with different concentrations of ligands in buffer C consisting of 20 mM Tris-HCl (pH 8.0), 150 mM NaCl, 1 mM Tris 2-carboxyethylphosphine (TCEP)-HCl, and 10% glycerol. The circular dichroism (CD) spectra were monitored within a 200–260 nm range at increasing temperatures from 30 °C to 70 °C (2 °C/min) using a J-1500 spectropolarimeter equipped with a PTC-510 thermal controller (JASCO, Tokyo, Japan). […] The ligand-induced increases in the Tm values were defined as ∆Tm.
(§5) Nuclear receptors, including PPARs, display an increased thermal stability upon ligand binding, which is detectable through CD spectroscopy.
(§6) Figure 3 Circular dichroism-based PPARα/δ/γ-LBD thermal stability assay. […] Data are presented as the mean ± SE of three or four (in parentheses) independent experiments. Differences vs. basal levels (with 0.1% DMSO) were statistically assessed by one-way ANOVA, followed by a Dunnett’s post hoc test: * p < 0.05, ** p < 0.01, and *** p < 0.001.
(In general: Circular dichroism is widely used to follow secondary structure.)

The target of assay [4] is T2, PPARα-LBD. Kind of assay: TR-FRET PGC1α coactivator recruitment assay. The following applies: PGC1α peptide, read-out: EC50, PGC1α recruitment to PPARα-LBD. On the set-up: Human PPARα-LBD (amino acids 200–468); made in house; host or cells: Rosetta (DE3) pLysS (E. coli). Format: biochemical. The procedure: as §1, §2, §3
Assay [5] has as its target T1, PPARγ-LBD. Nature of the assay: Thermal stability assay using circular dichroism spectroscopy. Format: binding. More on the design: PPARγ-LBD (amino acids 203–477 in isoform 1); His tag (pET28a) (N); made in house; host or cells: Rosetta (DE3) pLysS (E. coli). The following applies: CD at 222 nm, 10 µM LBD; for Effect on Tm of PPARγ-LBD (in words): GW1929 at 10 µM. The procedure: as §4, §5, §6

Structures are written as SMILES. pEC50: −log10 of the molar value.

As a reminder, the pEC50 is the negative decadic logarithm of the EC50, by convention in mol/L. For `CSc1ccc(C(=O)/C=C/c2cc(C)c(OC(C)(C)C(=O)O)c(C)c2)cc1` [elafibranor], the negative-log EC50 (pEC50) in assay [1] was 4.81; in assay [2], 5.31; in assay [4], 5.16. In addition, in assay [2] (100% = 1 µM GW7647), the “Efficacy, SRC1 recruitment to PPARα-LBD” value came to 59.2%. Moreover, in assay [3], the “Effect on Tm of PPARα-LBD (in words)” value is on record as “did not significantly alter the Tm values”. Moreover, the “Effect on Tm of PPARγ-LBD (in words)” value in assay [5] is reported as “did not significantly alter the Tm values”.
For `O=C(O)CCCc1cc2cc(Cl)ccc2n1S(=O)(=O)c1ccc2ncsc2c1` [lanifibranor], the pEC50 was 5.33 in assay [1], 4.86 in assay [2] and 5.00 in assay [4]. For the same molecule, the “Effect on Tm of PPARα-LBD (in words)” value in assay [3] is “increased the Tm values”. For the same molecule, the “Relative ∆Tm response, PPARγ-LBD (highest value)” value in assay [5] (100% = ∆Tm by 10 µM GW1929) came out at 61.4%. In assay [5], the “Effect on Tm of PPARγ-LBD (in words)” value is reported as “increased the Tm values”.
With `CCO[C@@H](Cc1ccc(OCCn2c(C)ccc2-c2ccc(SC)cc2)cc1)C(=O)O` [saroglitazar], the figures for the pEC50 in assay [1], in assay [2] and in assay [4] were 5.99, 5.98 and 5.39, respectively. In addition, in assay [3], the “Effect on Tm of PPARα-LBD (in words)” value is reported as “highly increased the Tm values”. In addition, the “Effect on Tm of PPARγ-LBD (in words)” value in assay [5] is on record as “highly increased the Tm values”.
On to `CCO[C@H](COc1ccc(C(F)(F)F)cc1)CSc1ccc(OCC(=O)O)c(C)c1` [seladelpar], for which the pEC50 in assay [1] was 4.71; in assay [2] it was below 6.00; in assay [4] it was 5.42. The “Effect on Tm of PPARα-LBD (in words)” value in assay [3] is “increased the Tm values”. Besides, the “Effect on Tm of PPARγ-LBD (in words)” value in assay [5] is “increased the Tm values”.
